Results as given in patent US20100267561A1, “HERBICIDAL PYRIDAZINONE DERIVATIVES” (priority 2007, published 2010).
Read-outs that look alike come from different tables or passages of the source.

Experiments:
Format in all cases: in vivo
[1] = test system: barnyardgrass (Echinochloa crus-galli); assay: Test A pre-/postemergence plant response; conditions: for Plant response rating, Barnyardgrass: 1000 g ai/ha; for pest or weed control at 31 g/ha / pest or weed control at 125 g/ha: Echinochloa crus-galli, 240 h, read-out: Plant response rating, Barnyardgrass; for pest or weed control at 31 g/ha: 31 g ai/ha; for pest or weed control at 125 g/ha: 125 g ai/ha
How it was run: (§1)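 Seeds were planted in blended loam soil and sand, then treated preemergence by directed soil spray. At that time, emerged plants (one- to two-leaf, 2–10 cm) received postemergence applications of the same surfactant-containing formulation. Injury was assessed visually on a 0–100 scale after approximately 10 days.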

corn (Zea mays) = assay: Test A pre-/postemergence plant response; conditions: for Plant response rating, Corn: 1000 g ai/ha; for Corn plant response rating (crop injury, 0 = no effect, 100 = complete kill) at 31 g/ha / Corn plant response rating (crop injury, 0 = no effect, 100 = complete kill) at 125 g/ha: Zea mays, 240 h; for Corn plant response rating (crop injury, 0 = no effect, 100 = complete kill) at 31 g/ha: 31 g ai/ha; for Corn plant response rating (crop injury, 0 = no effect, 100 = complete kill) at 125 g/ha: 125 g ai/ha
How it was run: as §1

[2] = test system: giant foxtail (Setaria faberi); assay: Test A pre-/postemergence plant response; conditions: for Plant response rating, Foxtail, Giant: 1000 g ai/ha; for pest or weed control at 31 g/ha / pest or weed control at 125 g/ha: Setaria faberi, 240 h, read-out: Plant response rating, Foxtail, Giant; for pest or weed control at 31 g/ha: 31 g ai/ha; for pest or weed control at 125 g/ha: 125 g ai/ha
How it was run: as §1

[3] = test system: large crabgrass (Digitaria sanguinalis); assay: Test A pre-/postemergence plant response; conditions: for Plant response rating, Crabgrass, Large: 1000 g ai/ha; for pest or weed control at 31 g/ha / pest or weed control at 125 g/ha: Digitaria sanguinalis, 240 h, read-out: Plant response rating, Crabgrass, Large; for pest or weed control at 31 g/ha: 31 g ai/ha; for pest or weed control at 125 g/ha: 125 g ai/ha
How it was run: as §1

[4] = test system: morningglory (Ipomoea coccinea); assay: Test A pre-/postemergence plant response; conditions: 1000 g ai/ha
How it was run: as §1

[5] = test system: pigweed (Amaranthus retroflexus); assay: Test A pre-/postemergence plant response; conditions: for Plant response rating, Pigweed: 1000 g ai/ha; for pest or weed control at 31 g/ha / pest or weed control at 125 g/ha: Amaranthus retroflexus, 240 h, read-out: Plant response rating, Pigweed; for pest or weed control at 31 g/ha: 31 g ai/ha; for pest or weed control at 125 g/ha: 125 g ai/ha
How it was run: as §1

[6] = test system: velvetleaf (Abutilon theophrasti); assay: Test A pre-/postemergence plant response; conditions: 1000 g ai/ha
How it was run: as §1

[7] = test system: wheat (Triticum aestivum); assay: Test A pre-/postemergence plant response; conditions: for Plant response rating, Wheat: 1000 g ai/ha; for plant injury at 31 g/ha / plant injury at 125 g/ha: Triticum aestivum, 240 h, read-out: Plant response rating, Wheat; for plant injury at 31 g/ha: 31 g ai/ha; for plant injury at 125 g/ha: 125 g ai/ha
How it was run: as §1

[8] = test system: blackgrass (Alopecurus myosuroides); assay: Test B pre-/postemergence plant response
Source text: (§2) Seeds of plant species selected from blackgrass (Alopecurus myosuroides), downy bromegrass (Bromus tectorum), green foxtail (Setaria viridis), Italian ryegrass (Lolium multiflorum), wheat (Triticum aestivum), wild oat (Avena fatua), catchweed bedstraw (Galium aparine), bermudagrass (Cynodon dactylon), surinam grass (Brachiaria decumbens), cocklebur (Xanthium strumarium), corn (Zea mays), large crabgrass (Digitaria sanguinalis), woolly cupgrass (Eriochloa villosa), giant foxtail (Setaria faberii), goosegrass (Eleusine indica), johnsongrass (Sorghum halepense), kochia (Kochia scoparia), lambsquarters (Chenopodium album), morningglory (Ipomoea coccinea), eastern black (E.B.) nightshade (Solanum ptycanthum), yellow nutsedge (Cyperus esculentus), pigweed (Amaranthus retroflexus), common ragweed (Ambrosia elation), Russian thistle (Salsola iberica), soybean (Glycine max), common (oilseed) sunflower (Helianthus annuus), and velvetleaf (Abutilon theophrasti) were planted and treated preemergence with test chemicals formulated in a non-phytotoxic solvent mixture which included a surfactant.
(§3) At the same time, plants selected from these crop and weed species and also winter barley (Hordeum vulgare), canarygrass (Phalaris minor), chickweed (Stellaria media) and windgrass (Apera spica-venti) were treated with postemergence applications of some of the test chemicals formulated in the same manner. Plants ranged in height from 2 to 18 cm (1- to 4-leaf stage) for postemergence treatments.
(§4) Plant species in the flooded paddy test consisted of rice (Oryza sativa), umbrella sedge (Cyperus difformis), ducksalad (Heteranthera limosa) and barnyardgrass (Echinochloa crus-galli) grown to the 2-leaf stage for testing. At time of treatment, test pots were flooded to 3 cm above the soil surface, treated by application of test compounds directly to the paddy water, and then maintained at that water depth for the duration of the test. Treated plants and controls were maintained in a greenhouse for 13 to 15 days, after which time all species were compared to controls and visually evaluated. Plant response ratings, summarized in Table B, are based on a scale of 0 to 100 where 0 is no effect and 100 is complete control. A dash (-) response means no test result.

[9] = test system: catchweed bedstraw (Galium aparine); assay: Test B pre-/postemergence plant response; conditions: Preemergence
Source text: as §2, §3, §4

[10] = test system: yellow nutsedge (Cyperus esculentus); assay: Test B pre-/postemergence plant response; conditions: for pest or weed control at 31 g/ha / pest or weed control at 62 g/ha: Cyperus, read-out: Plant response rating, Nutsedge, Yellow
Source text: as §2, §3, §4

[11] = Postemergence, 0 to 100 scale, 0 no effect, 100 complete control
[12] = Preemergence, 0 to 100 scale (0 no effect, 100 complete control)
[13] = Preemergence, 31 g ai/ha, 0 to 100 scale, 0 no effect, 100 complete control
[14] = Preemergence, 62 g ai/ha, scale 0 to 100
[15] = Preemergence, 125 g ai/ha, scale 0 to 100
[16] = post-emergence, Postemergence, 0 to 100 scale (0 no effect, 100 complete control)
[17] = post-emergence, Postemergence, 0 to 100 scale, 0 no effect, 100 complete control
[18] = pre-emergence, Preemergence, 0 to 100 scale, 0 is no effect, 100 is complete control
[19] = pre-emergence, Preemergence, 0 to 100 scale (0 no effect, 100 complete control)
[20] = 8 g ai/ha, postemergence, 0-100 scale
[21] = Preemergence, 8 g ai/ha, scale 0 to 100 (0 no effect, 100 complete control)
[22] = Preemergence, 16 g ai/ha, scale 0 to 100

## Cc1cc(-c2ccc(C(F)(F)F)cc2)nn1-c1c(OC(=O)C(C)(C)C)cnn(C)c1=O [Compound 2]
[1]; [11]
  Plant response rating, Barnyardgrass: 100
[1]; [12]
  Plant response rating, Barnyardgrass: 100
Corn (Zea mays); [11]
  Plant response rating, Corn: 90
Corn (Zea mays); [12]
  Plant response rating, Corn: 80
[2]; [11]
  Plant response rating, Foxtail, Giant: 90
[2]; [12]
  Plant response rating, Foxtail, Giant: 100
[3]; [11]
  Plant response rating, Crabgrass, Large: 80
[3]; [12]
  Plant response rating, Crabgrass, Large: 100
[4]; [11]
  Plant response rating, Morningglory: 0
[4]; [12]
  Plant response rating, Morningglory: 0
[5]; [11]
  Plant response rating, Pigweed: 0
[5]; [12]
  Plant response rating, Pigweed: 0
[6]; [11]
  Plant response rating, Velvetleaf: 40
[6]; [12]
  Plant response rating, Velvetleaf: 60
[7]; [11]
  Plant response rating, Wheat: 90
[7]; [12]
  Plant response rating, Wheat: 90
[8]; 250 g ai/ha, preemergence, 0-100 scale
  Blackgrass plant response rating: 100
[8]; [13]
  Plant response rating, Blackgrass: 60
[8]; [14]
  Plant response rating, Blackgrass: 80
[8]; [15]
  Plant response rating, Blackgrass: 100
[9]; 31 g ai/ha, 0 to 100 scale, 0 no effect, 100 complete control
  Plant response rating, Galium: 100
[9]; 62 g ai/ha, scale 0 to 100
  Plant response rating, Galium: 100
[9]; 250 g ai/ha, scale 0 to 100
  Plant response rating, Galium: 100
[10]; [13]
  Plant response rating, Nutsedge, Yellow: 0
[10]; [14]
  Plant response rating, Nutsedge, Yellow: 0
[10]; [15]
  Plant response rating, Nutsedge, Yellow: 0
[10]; Preemergence, 250 g ai/ha, scale 0 to 100
  Plant response rating, Nutsedge, Yellow: 0

## Cc1cc(-c2ccc(Br)cc2)nn1-c1c(OC(=O)C2CC2)cnn(C(=O)C2CC2)c1=O [Compound 80, 5-[3-(4-bromophenyl)-5-methyl-1H-pyrazol-1-yl]-1-(cyclopropylcarbonyl)-1,6-dihydro-6-oxo-4-pyridazinyl cyclopropanecarboxylate]
[1]; [16]
  pest or weed control at 31 g/ha: 100%
[1]; [17]
  pest or weed control at 125 g/ha: 100%
[1]; [18]
  pest or weed control at 31 g/ha: 0%
[1]; [19]
  pest or weed control at 125 g/ha: 100%
Corn (Zea mays); [16]
  Corn plant response rating (crop injury, 0 = no effect, 100 = complete kill) at 31 g/ha: 60%
Corn (Zea mays); [17]
  Corn plant response rating (crop injury, 0 = no effect, 100 = complete kill) at 125 g/ha: 100%
Corn (Zea mays); [18]
  Corn plant response rating (crop injury, 0 = no effect, 100 = complete kill) at 31 g/ha: 40%
Corn (Zea mays); [19]
  Corn plant response rating (crop injury, 0 = no effect, 100 = complete kill) at 125 g/ha: 60%
[2]; [16]
  pest or weed control at 31 g/ha: 90%
[2]; [17]
  pest or weed control at 125 g/ha: 100%
[2]; [18]
  pest or weed control at 31 g/ha: 80%
[2]; [19]
  pest or weed control at 125 g/ha: 100%
[3]; [16]
  pest or weed control at 31 g/ha: 60%
[3]; [17]
  pest or weed control at 125 g/ha: 100%
[3]; [18]
  pest or weed control at 31 g/ha: 10%
[3]; [19]
  pest or weed control at 125 g/ha: 100%
[5]; [16]
  pest or weed control at 31 g/ha: 0%
[5]; [17]
  pest or weed control at 125 g/ha: 0%
[5]; [18]
  pest or weed control at 31 g/ha: 0%
[5]; [19]
  pest or weed control at 125 g/ha: 0%
[7]; [16]
  plant injury at 31 g/ha: 30%
[7]; [17]
  plant injury at 125 g/ha: 70%
[7]; [18]
  plant injury at 31 g/ha: 20%
[7]; [19]
  plant injury at 125 g/ha: 80%
[8]; [20]
  Blackgrass plant response rating: 80
[8]; Alopecurus myosuroides, post-emergence, Postemergence, 16 g ai/ha, scale 0 to 100, read-out: Plant response rating, Blackgrass
  pest or weed control at 16 g/ha: 85%
[8]; Alopecurus myosuroides, post-emergence, Postemergence, 31 g ai/ha, scale 0 to 100, read-out: Plant response rating, Blackgrass
  pest or weed control at 31 g/ha: 95%
[8]; Alopecurus myosuroides, post-emergence, Postemergence, 62 g ai/ha, scale 0 to 100, 0 no effect, 100 complete control, read-out: Plant response rating, Blackgrass
  pest or weed control at 62 g/ha: 100%
[8]; Alopecurus myosuroides, pre-emergence, Preemergence, 31 g ai/ha, scale 0 to 100 (0 no effect, 100 complete control), read-out: Plant response rating, Blackgrass
  pest or weed control at 31 g/ha: 100%
[8]; Alopecurus myosuroides, pre-emergence, Preemergence, 62 g ai/ha, 0 to 100 scale, 0 no effect, 100 complete control, read-out: Plant response rating, Blackgrass
  pest or weed control at 62 g/ha: 100%
[8]; [21]
  Blackgrass plant response rating: 70
[8]; [22]
  Blackgrass plant response rating: 70
[9]; Galium aparine, pre-emergence, 31 g ai/ha, scale 0 to 100 (0 no effect, 100 complete control), read-out: Plant response rating, Galium
  pest or weed control at 31 g/ha: 0%
[9]; Galium aparine, pre-emergence, 62 g ai/ha, 0 to 100 scale, 0 no effect, 100 complete control, read-out: Plant response rating, Galium
  pest or weed control at 62 g/ha: 0%
[9]; 8 g ai/ha, scale 0 to 100 (0 no effect, 100 complete control)
  Galium plant response rating: 0
[9]; 16 g ai/ha, scale 0 to 100
  Galium plant response rating: 0
[10]; [20]
  Nutsedge, Yellow plant response rating: 0
[10]; 16 g ai/ha, postemergence, 0-100 scale
  Nutsedge, Yellow plant response rating: 0
[10]; post-emergence, Postemergence, 31 g ai/ha, scale 0 to 100
  pest or weed control at 31 g/ha: 0%
[10]; post-emergence, Postemergence, 62 g ai/ha, scale 0 to 100, 0 no effect, 100 complete control
  pest or weed control at 62 g/ha: 0%
[10]; pre-emergence, Preemergence, 31 g ai/ha, scale 0 to 100 (0 no effect, 100 complete control)
  pest or weed control at 31 g/ha: 0%
[10]; pre-emergence, Preemergence, 62 g ai/ha, 0 to 100 scale, 0 no effect, 100 complete control
  pest or weed control at 62 g/ha: 100%
[10]; [21]
  Nutsedge, Yellow plant response rating: 0
[10]; [22]
  Nutsedge, Yellow plant response rating: 0
